Measurements reported in PMC10947113, “A Bivalent Activatable Fluorescent Probe for Screening and Intravital Imaging of Chemotherapy‐Induced Cancer Cell Death” (Angewandte Chemie (Weinheim an Der Bergstrasse, Germany), 2021).

What was measured:
[1] = tested on: MMTV-PyMT mammary gland tumours; assay: Intravital imaging and ex vivo quantification of cisplatin-induced apoptosis; assay type: in vivo, mouse
From the text: Optical intravital imaging is increasingly used for the preclinical evaluation of anticancer drugs in vivo. Although imaging modalities like computed tomography, positron emission tomography and magnetic resonance imaging can help to visualise whole intact organs in a non‐invasive manner,[26] they lack the spatiotemporal resolution needed to study dynamic interactions between individual tumour and stromal cells. This feature is critical to understand the mechanism of action of anticancer drugs and how they can affect interactions between cancer cells and immune cells in the tumour microenvironment.[27] Intravital imaging heavily relies on the acquisition of fluorescence signals using multiphoton microscopy, which provides cellular resolution with deep tissue penetration (≈500 μm) and minimal photodamage.[28] […] First, we analysed the chemical stability of Apotracker Red for in vivo studies by incubating the probe in mouse serum. […] When primary tumours measured around 0.5–1 cm in diameter, we administered cisplatin intraperitoneally (10 mg kg^−1). […]
were centrifuged (300 g, 5 min, r.t.), washed once with PBS before addition of 0.05% Trypsin, 0.02% ethylenediaminetetraacetic acid (EDTA) in Hank’s balanced salt solution (HBSS) and incubation at 37°C for 5 min. […] Histograms and mean fluorescence intensities of apoptotic cells were measured on a 5L LSR flow cytometer under the following […]

8 cancer cell lines = assay: Classification of drugs by Apotracker Red (apoptosis) and CellTrace Violet (proliferation) staining; assay type: cell-based; details: 8 cancer cell lines, 24 h treatment, flow cytometry
Experimental: To corroborate the versatility of Apotracker Red, we built a screening platform including a total of 8 cancer cell lines of variable origin and pathogenesis: breast (MCF7, MDA‐MB231 and MMTV‐PyMT (mouse mammary tumour virus‐polyoma middle tumour‐antigen)[23]), lung (A549), prostate (PC3 and LnCap), blood cells (Jurkat) and colon (HT29). All cell lines were cultured under standard conditions and seeded with the fluorescent proliferation marker CellTrace^TM Violet (CV) in 96‐well plates (10–20×10^3 cells/well) for high‐throughput flow cytometry. After drug treatment (i.e., drug addition plus 24 h incubation), Apotracker Red was incubated for 10 min and fluorescence readings were directly acquired without any additional processing steps (Figure 3 a). […] Using this platform, we tested a collection of FDA‐approved drugs in all cancer cell lines and compared their ability to induce apoptosis using Apotracker Red as the reporter. Specifically, we included DNA alkylation agents (e.g., cyclophosphamide, cisplatin, 5‐fluorouracil, gemcitabine, temozolomide), proteasomal and mitotic inhibitors (e.g., bortezomib, docetaxel, paclitaxel) and antagonists of specific proteins (e.g., dexamethasone, tamoxifen; Figure 3 b).
First, all drugs were tested in the 8 different cell lines to determine the percentages of Apotracker Red‐stained apoptotic cells compared to no treatment (Figure 3 c; Figure S8). […] All 5 drugs were tested at multiple concentrations (from 1 to 100 μM) and with incubation times up to 48 h to examine whether drugs could block cell proliferation at late stages (Figures S9–S13).
Figure S8. Heatmap of relative inhibition of cell proliferation (as indicated by staining of CellTraceTM Violet) after treatment of cancer cell lines with different drugs. Data presented as an average of 3 independent experiments. Cells were stained on day 0 with CellTraceTM Violet (1 µM) and mean fluorescence intensities were determined on the 5L LSR after 24 h of treatment with the different drugs. […]
Cell culture. MCF-7, A549, LnCap, MDA-MB-231, Jurkat T cells and PC3 cells were obtained from American Type Culture Collection (ATCC). HT29 cells were purchased from Merck (S i g m a Aldrich, UK). Mouse Mammary Tumour Virus –Polyoma Middle T antigen (MMTV -PyMT) cells were provided by the lab of Mikala Egeblad (CSHL, US). MMTV-PyMT, MCF-7, LnCap, MDA-MB-231 and Jurkat T cells were cultured in Roswell Park Memorial Institute (RPMI) 1640 Medium supplemented with 10% fetal bovine serum (FBS) , 100 U mL-1 penicillin and 0.1 mg mL-1 streptomycin. A549 and PC3 cells were cultured in Dublecco’s modified Eagle’s medium (DMEM) supplemented with 10% fetal bovine serum (FBS), 100 U mL-1 penicillin and 0.1 mg […]
Flow cytometry drug screen.

N.N.[Cl][Pt][Cl] [cisplatin]
Apotracker Red fluorescence in tumours of cisplatin-treated mice (cancer cell death) ([1]; MMTV-PyMT;ACTB-ECFP mice, cisplatin 10 mg kg^-1 intraperitoneally, Apotracker Red 650 ng i.v. after 72 h, two-photon intravital imaging): strong red fluorescent signals indicating cancer cell death induced by the drug
relative percentages of apoptotic cells in tumours, ex vivo quantification ([1]; cisplatin 10 μg g^-1 i.p., day 3, at least 5 tumour areas per mouse, mean±SEM, one-way ANOVA p<0.05): significant differences
drug group by Apotracker Red (apoptosis) and CV (proliferation) staining (8 cancer cell lines): induced apoptosis and decreased cell proliferation
